{"source": "patent US20050054013A1", "about": "“Methods and products for identifying modulators of P2X7 receptor activity, and their use in the treatment of skeletal disorders” (Pfizer Inc, priority 2001, published 2005)", "key": {"[1]": {"test_system": "IL-6", "assay": "In vivo cytokine production: IL-6 in peritoneal lavage of LPS-primed mice by ELISA", "conditions": "LPS-primed mice subsequently challenged with ATP; 4 hour time point", "experimental": "Groups of mice are injected intraperitoneally (ip) with 1 μg of LPS. […] Samples of peritoneal lavages are spun down, and the supernatants are collected and tested for the presence of IL-1β and IL-6 using ELISAs (Amersham Life Sciences, Arlington Heights, Va. and Endogen, Woburn, Mass., respectively).\nIL-1 signaling may lead to the production of other cytokines such as IL-6 (Allen et al. (2000), J. Exp. Med. 191:859-869). […] The animals are incubated for an additional period (e.g., 4 hours) and peritoneal lavages are collected several times during the course of the incubation and analyzed for cytokines by ELISA. […] By 4 hours, however, IL-6 levels recovered from the LPS-PBS treated animals returned to baseline."}, "[2]": {"target": "T1, P2X7 receptor (Mus musculus, UniProt Q9Z1M0)", "T1 construct": "endogenous in cells; host or cells: peritoneal macrophages isolated from wild-type animals", "T1 sequence (Q9Z1M0 1-595)": "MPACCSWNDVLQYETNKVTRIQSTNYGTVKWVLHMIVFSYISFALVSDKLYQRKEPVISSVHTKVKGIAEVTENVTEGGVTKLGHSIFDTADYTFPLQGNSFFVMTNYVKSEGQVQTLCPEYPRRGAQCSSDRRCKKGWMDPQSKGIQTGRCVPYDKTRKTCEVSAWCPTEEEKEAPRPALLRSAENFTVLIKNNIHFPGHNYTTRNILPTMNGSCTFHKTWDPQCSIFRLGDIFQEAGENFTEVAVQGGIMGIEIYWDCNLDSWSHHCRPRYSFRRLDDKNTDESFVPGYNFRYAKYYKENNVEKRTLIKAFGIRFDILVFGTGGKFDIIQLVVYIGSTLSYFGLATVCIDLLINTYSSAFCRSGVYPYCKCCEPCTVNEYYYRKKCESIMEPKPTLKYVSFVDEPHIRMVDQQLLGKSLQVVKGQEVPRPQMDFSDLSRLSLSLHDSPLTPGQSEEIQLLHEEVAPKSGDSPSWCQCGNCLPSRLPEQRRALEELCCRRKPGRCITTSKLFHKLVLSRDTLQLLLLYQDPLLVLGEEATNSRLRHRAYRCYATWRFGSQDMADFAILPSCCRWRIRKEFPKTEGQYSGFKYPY", "assay": "P2X7 receptor-mediated YoPro Yellow uptake in peritoneal macrophages", "assay_type": "cell-based", "conditions": "peritoneal macrophages from wild-type animals, 5 mM ATP, extracellular YoPro Yellow", "experimental": "This increase in fluorescence results from internalization of the dye molecules followed by their binding to DNA; when bound to DNA, the fluorescence intensity increases.\nWhen assaying P2X7 receptor function using isolated macrophages, the peritoneal macrophages are washed with isotonic medium (15 mM HEPES, pH 7.2, 135 mM NaCl, 5 mM KCl, […], […]) by centrifugation and the resulting cell pellet is suspended in isotonic medium to achieve a final cell concentration of about 1×10^6 cells/ml. Fifty μl of this cell suspension is placed into the wells of a plate (e.g., Microfluor “B” U-bottom plate, Dynatech, Chantilly, Va.), and 50 μl of a fluorescent dye (e.g., 2 μM YoPro Yellow, Molecular Probes, Eugene, Oreg.) dissolved in the isotonic medium is added to each well. Test compounds or control vehicles are added to the wells with or without the addition of […]. Fluorescence is monitored as a function of time at […]. For YoPro Yellow dye, excitation is at 450 nm and emission is measured at 530 nm. Test compounds which stimulate P2X7 receptor activity increase fluorescence as compared to control samples that lack test compound."}, "[3]": {"test_system": "other P2X receptors", "conditions": "cited from earlier work"}}}
{"smiles": "Nc1ncnc2c1ncn2[C@@H]1O[C@H](COP(=O)(O)OP(=O)(O)OP(=O)(O)O)[C@@H](O)[C@H]1O", "note": "[ATP, adenosine triphosphate]", "values": [{"measurement": "lavage fluid IL-6, peak value", "setting": "[1]", "result": "> 25", "unit": "ng/mL"}, {"measurement": "fluorescence intensity (YoPro Yellow internalization)", "setting": "[2]", "result": "time dependent increase in fluorescence intensity"}, {"measurement": "ATP concentrations at which receptors activate", "setting": "[3]", "result": "less than or equal to 100 μM"}]}
